Measurements reported in patent US20050250826A1, “Compounds, compositions, processes of making, and methods of use related to inhibiting macrophage migration inhibitory factor” (priority 2004, published 2005).

Experiments:
[1] = tested on: carageenin-induced edema; conditions: rat paw; compared to parent compound unsubstituted in the para position of the phenyl ring; Curuzu et al. 1991; cited from earlier work
[2] = biological target: T1, recombinant human MIF (Homo sapiens, UniProt P14174); experiment: MIF dopachrome tautomerase assay; format: biochemical; conditions: dose-dependent inhibition
T1 construct: made in house; host or cells: E. coli
T1 sequence (P14174 2-115 limits assumed): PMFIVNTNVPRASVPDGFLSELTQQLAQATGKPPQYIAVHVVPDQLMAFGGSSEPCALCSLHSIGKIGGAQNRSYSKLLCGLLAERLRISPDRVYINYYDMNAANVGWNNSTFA
From the text: The compounds of Formula I or II are identified as MIF inhibitors because they inhibit MIF enzymatic activity in vitro. […] This reaction predicts therapeutic MIF inhibitors (see U.S. Pat. No. 6,420,188 and U.S. Pat. No. 6,599,938, the disclosures of which are incorporated herein by reference in their entirety). Inhibition of MIF tautomerase activity is predictive of inhibition of MIF biological activity.
A method for performing an assay for MIF dopachrome tautomerase activity begins with the preparation and oxidation of a DOPA-related substrate precursor, such as L-3,4-dihydroxyphenylalanine methyl ester. […] The absorbance is measured at about 475 nm (or 550 nm for substrate concentrations in excess […]). A test compound may be included in the assay solution such that the effect of the test compound on MIF tautomerase activity (i.e., as an inhibitor) may be measured by noting the change in kinetics of substrate tautomerization compared to control assays performed in the absence of the test inhibitor compound. […]
L-3,4-dihydroxyphenylalanine methyl ester (e.g., Sigma D-1507) is a dopachrome substrate precursor, and is prepared as a 4 mM solution in dd H2O Sodium periodate is prepared as an 8 mM solution in dd H2O. […] Inhibition of MIF tautomerase activity by the test compounds is determined by inhibition of the de-colorization of the assay mixture, often at the 20 sec time point. […]

Compound | IC50 [2] | anti-inflammatory activity [1] | also measured
O=C(O)CC1CC(c2ccc(O)cc2)=NO1 (centres unmarked) [3-(4-hydroxyphenyl)-4,5-dihydro-5-isoxazolineacetic acid] |  | devoid of anti-inflammatory activity | 
COc1ccc(C2=NOC(CC(=O)O)C2)cc1 (centres unmarked) [3-(4-methoxyphenyl)-4,5-dihydro-5-isoxazolineacetic acid] |  | dramatically reduced | 
CCOC(=O)C(C)CC1CC(c2ccc(O)cc2)=NO1 (centres unmarked) [Compound 32] |  |  | melting point: 192 to 194 °C

Now from value to compound, other results behind:

IC50 [2] | Compound | anti-inflammatory activity [1] | also measured
~10 µM | O=C(CC1CC(c2ccc(O)cc2)=NO1)N1CCCC1 (centres unmarked) [Compound 68] |  | 
~10 µM | O=C(CC1CC(c2ccc(O)cc2)=NO1)N1CCOCC1 (centres unmarked) [Compound 69] |  | 
